Test results as given in patent US11696881B2, “Oral care compositions comprising hops beta acids and fluoride ions” (The Procter & Gamble Company, priority 2019, dated 2023).

Test system: plaque biofilm grown from pooled human saliva (3-day biofilm)
Experiment: in vitro plaque glycolysis model (iPGRM): acid production and acid inhibition
Type: cell-based
Protocol: Acid production and acid inhibition were determined with the in vitro plaque glycolysis model (iPGRM). The purpose of this technique is to provide a simple and quick method for determining if compounds have an influence on the metabolic pathways that plaque microorganisms utilize to produce toxins that adversely affect gingival health.
The in vitro plaque glycolysis model (iPGRM) is a technique in which plaque is grown from human saliva and treated with various agents to determine anti-glycolytic activity of treatments. When bacteria convert sugar into energy with the help of enzymes, acids are formed. These acids demineralize and damage the dental enamel. […]
A plaque biofilm was grown on glass rods from fresh pooled human saliva and Trypticase Soy Broth (TSB) at 37° C. over […] by dipping glass rods into and out of media in a reciprocating motion. […] The pH of the media solutions was then measured to determine the amount of glycolysis inhibition relative to a negative control.
On Day 1, new glass rods (5 mm×90 mm) were polished approximately 25 mm from the untapered end on a lathe with silicon carbide paper of 240, 320, 400, and 600 grit used sequentially. […] After polishing, rods were stored until ready to run test. […]

[H]/N=C(\N/C(=N/[H])NCCCCCCNC(=N)NC(=N)Nc1ccc(Cl)cc1)Nc1ccc(Cl)cc1 [1% Chlorhexidine, Chlorhexidine]
Acid Production (ΔpH) Mean (Table 2, 2 min treatment with 1:5 slurry in water): 0.30 ΔpH
Mean Acid Inhibition (%) Mean (Table 2, relative to negative control Crest Cavity Protection): 80.77%
